Measurements from patent US8987249B2, “Substituted 2-Aza-bicyclo[2.2.1]heptane-3-carboxylic acid (benzyl-cyano-methyl)-amides inhibitors of Cathepsin C” (Boehringer Ingelheim International GmbH, priority 2013, dated 2015).
pIC50: −log10 of the molar value.

Tests used:
[1] = biological target: recombinant human DPPI (Cathepsin C) (Homo sapiens (Human), UniProt P53634); experiment: Inhibition of human DPPI (Cathepsin C); format: biochemical; settings: substrate Gly-Arg-AMC
Experimental: Inhibition of Human DPPI (Cathepsin C)
Bovine serum albumin (BSA; Prod. No. A3059) and Dithiothreitol (DTT; Prod. No D0632) were from Sigma. […] The DPP1 inhibitor Gly-Phe-DMK was purchased from MP Biomedicals (Prod.-No. 03DK00625). The recombinant human DPPI was purchased from Prozymex. All other materials were of highest grade commercially available.
The following buffers were used: MES buffer: 25 mM MES, 50 mM NaCl, 5 mM DTT, adjusted to pH 6.0, containing 0.1% BSA; TAGZyme Buffer: 20 mM NaH2PO4, 150 mM NaCl adjusted to pH 6.0 with HCl
Then, 5 μL of substrate in MES buffer (final concentration 50 μM) were added. The microtiter plates were then incubated at room temperature for 30 min. Then, the reaction was stopped by adding 10 μL of Gly-Phe-DMK in MES-buffer (final concentration 1 μM).
The analysis of the data was performed by calculating the percentage of fluorescence in the presence of test compound in comparison to the fluorescence of the vehicle control after subtracting the background fluorescence using the following formula: (RFU(sample)−RFU(background))*100/(RFU(control)−RFU(background))
Data from these calculations were used to generate IC50 values for inhibition of DPPI, respectively.

[2] = biological target: recombinant human Cathepsin K (Homo sapiens (Human), UniProt P43235); experiment: Inhibition of human Cathepsin K; format: biochemical; settings: substrate Z-Gly-Pro-Arg-AMC
From the text: Inhibition of Human Cathepsin K
Materials: Microtiterplates (Optiplate-384 F were purchased from PerkinElmer (Prod. No. 6007270). The substrate Z-Gly-Pro-Arg-AMC was from Biomol (Prod.-No. P-142). L-Cysteine (Prod. No. 168149) was from Sigma. Sodium acetate was from Merck (Prod.-No. 6268.0250), EDTA was from Fluka (Prod.-No. 03680). The inhibitor E-64 was purchased from Sigma (Prod.-No. E3132). The recombinant human Cathepsin K proenzyme was purchased from Biomol (Prod. No. SE-367). All other materials were of highest grade commercially available.
The following buffers were used: Activation buffer: 32.5 mM sodium acetate, adjusted to pH 3.5 with HCl; Assay buffer: 150 mM sodium acetate, 4 mM EDTA, 20 mM L-Cysteine, adjusted to pH 5.5 with HCl,
To activate the proenzyme, 5 μl procathepsin K were mixed with 1 ul activation buffer, and incubated at room temperature for 30 min.
5 μL test compound (final concentration 0.1 nM to 100 μM) in aqua bidest (containing 4% DMSO, final DMSO concentration 1%) were mixed with 10 uL of Cathepsin K in assay buffer (final concentration 2 ng/μL) and incubated for 10 min. […] The plates were then incubated at room temperature for 60 min. Then, the reaction was stopped by adding 10 μL of E64 in assay buffer (final concentration 1 μM). The fluorescence in the wells was determined using a Molecular Devices SpectraMax M5 Fluorescence Reader (Ex 360 nm, Em 460 nm).
Each assay microtiter plate contains wells with vehicle controls (1% DMSO in bidest) as reference for non-inhibited enzyme activity (100% Ctl; high values) and wells with inhibitor (E64 in bidest+1% DMSO, final concentration […]) as controls for background fluorescence (0% Ctl; low values). The analysis of the data was performed by calculating the percentage of fluorescence in the presence of test compound in comparison to the fluorescence of the vehicle control after subtracting the background fluorescence: (RFU(sample)−RFU(background))*100/(RFU(control)−RFU(background))
Data from these calculations were used to generate IC50 values for inhibition of Cathepsin K, respectively.

Sequence of recombinant human Cathepsin K (P43235 115-329): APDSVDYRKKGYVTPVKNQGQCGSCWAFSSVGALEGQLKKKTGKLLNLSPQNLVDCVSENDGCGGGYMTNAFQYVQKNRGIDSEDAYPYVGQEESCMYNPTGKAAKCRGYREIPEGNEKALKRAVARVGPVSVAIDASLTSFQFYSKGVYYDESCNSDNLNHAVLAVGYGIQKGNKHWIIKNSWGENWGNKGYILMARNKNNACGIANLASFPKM
Sequence of recombinant human DPPI (Cathepsin C) (P53634 231-394): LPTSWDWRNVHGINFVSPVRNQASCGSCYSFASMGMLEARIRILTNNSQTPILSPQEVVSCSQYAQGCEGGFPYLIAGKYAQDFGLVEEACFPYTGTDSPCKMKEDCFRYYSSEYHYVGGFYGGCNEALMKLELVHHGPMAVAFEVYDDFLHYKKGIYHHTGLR
Sequence of recombinant human DPPI (Cathepsin C) (P53634 395-463): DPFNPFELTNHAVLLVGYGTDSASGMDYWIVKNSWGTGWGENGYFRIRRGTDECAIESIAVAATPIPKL
Sequence of recombinant human DPPI (Cathepsin C) (P53634 25-134): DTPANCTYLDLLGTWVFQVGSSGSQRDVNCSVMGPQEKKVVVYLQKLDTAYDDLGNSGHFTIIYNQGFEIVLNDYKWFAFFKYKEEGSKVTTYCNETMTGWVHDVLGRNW

pIC50 [1]	pIC50 [2]	Structure (SMILES)
8.35	5.41	N#C[C@H](Cc1ccc(N2CCN(c3ccccc3)CC2)cc1F)NC(=O)[C@H]1N[C@@H]2CC[C@H]1C2 [Example 32, (1S,2S,4R)—N-[(1S)-1-cyano-2-[2-fluoro-4-(4-phenylpiperazin-1-yl)phenyl]ethyl]-3-azabicyclo[2.2.1]heptane-2-carboxamide]
8.34	5.60	N#C[C@H](Cc1ccc(-c2ccc3c(c2)C(=O)OC3)cc1F)NC(=O)[C@H]1N[C@@H]2CC[C@H]1C2 [Example 34]
8.33	5.52	N#C[C@H](Cc1ccc(-c2cccs2)cc1F)NC(=O)[C@H]1N[C@@H]2CC[C@H]1C2 [Example 36]
8.33	5.29	N#C[C@H](Cc1ccc(-c2cccc(S(N)(=O)=O)c2)cc1F)NC(=O)[C@H]1N[C@@H]2CC[C@H]1C2 [Example 37]
8.32	5.54	CC(=O)NCCn1cc(-c2ccc(C[C@@H](C#N)NC(=O)[C@H]3N[C@@H]4CC[C@H]3C4)c(F)c2)cn1 [Example 38]
8.20	5.36	N#C[C@@H](Cc1ccc(-c2ccc3ncsc3c2)cc1F)NC(=O)[C@H]1N[C@@H]2CC[C@H]1C2 [Example 45]
8.14	5.48	CC(C)CC(=O)n1cc(-c2ccc(C[C@@H](C#N)NC(=O)[C@H]3N[C@@H]4CC[C@H]3C4)c(F)c2)cn1 [Example 48]
8.12	5.31	CNS(=O)(=O)c1ccc(-c2ccc(CC(C#N)NC(=O)[C@H]3N[C@@H]4CC[C@H]3C4)c(F)c2)cc1 (stereo partly drawn) [Example 51]
8.08	5.40	N#CC(Cc1ccc(-c2ccc(S(N)(=O)=O)cc2)cc1F)NC(=O)[C@H]1N[C@@H]2CC[C@H]1C2 (stereo partly drawn) [Example 56]
8.07	5.60	N#C[C@H](Cc1ccc(-c2cnc(N3CCOCC3)s2)cc1F)NC(=O)[C@H]1N[C@@H]2CC[C@H]1C2 [Example 59]
8.06	4.91	Cn1nc2ccccc2c1-c1ccc(C[C@@H](C#N)NC(=O)[C@H]2N[C@@H]3CC[C@H]2C3)c(F)c1 [Example 60]
8.06	4.96	CN1C(=O)Cc2ccc(-c3cc(F)c(CC(C#N)NC(=O)[C@H]4N[C@@H]5CC[C@H]4C5)c(F)c3)cc21 (stereo partly drawn) [Example 61]
8.03	5.38	CC(C)Cn1cc(-c2ccc(C[C@@H](C#N)NC(=O)[C@H]3N[C@@H]4CC[C@H]3C4)c(F)c2)cn1 [Example 64]
8.03	5.32	COc1ncc(-c2cn(-c3ccc(C[C@@H](C#N)NC(=O)[C@H]4N[C@@H]5CC[C@H]4C5)c(F)c3)nn2)cn1 [Example 66]
8.00	5.62	N#C[C@H](Cc1ccc(-c2cn[nH]c2)cc1F)NC(=O)[C@H]1N[C@@H]2CC[C@H]1C2 [Example 69]
7.99	4.92	Cn1ncc2ccc(-c3ccc(C[C@@H](C#N)NC(=O)[C@H]4N[C@H]5C[C@@H]4[C@@H]4C[C@@H]45)c(F)c3)cc21 [Example 70]
7.97	5.14	CC(=O)c1ccc(-c2ccc(CC(C#N)NC(=O)[C@H]3N[C@@H]4CC[C@H]3C4)c(F)c2)s1 (stereo partly drawn) [Example 72]
7.95	5.51	N#C[C@H](Cc1ccc(-c2ccco2)cc1F)NC(=O)[C@H]1N[C@@H]2CC[C@H]1C2 [Example 73]
7.94	5.60	N#C[C@H](Cc1ccc(-c2cnn(C(=O)C3CCOCC3)c2)cc1F)NC(=O)[C@H]1N[C@@H]2CC[C@H]1C2 [Example 74]
7.94	5.28	N#C[C@H](Cc1ccc(-c2ccccc2)cc1F)NC(=O)[C@H]1N[C@@H]2CC[C@H]1C2 [Example 75]

pIC50 [1]	pIC50 [2]	Structure (SMILES)
7.92	5.46	N#CC(Cc1ccc(-c2ccc3c(c2)CC(=O)N3)cc1F)NC(=O)[C@H]1N[C@@H]2CC[C@H]1C2 (stereo partly drawn) [Example 79]
7.91	5.39	Cc1nc(C)c(-c2ccc(C[C@@H](C#N)NC(=O)[C@H]3N[C@@H]4CC[C@H]3C4)c(F)c2)s1 [Example 80]
7.86	5.31	N#C[C@H](Cc1ccc(-n2cc(-c3ccc4occc4c3)nn2)cc1F)NC(=O)[C@H]1N[C@@H]2CC[C@H]1C2 [Example 84]
7.85	5.52	N#Cc1sccc1-c1ccc(C[C@@H](C#N)NC(=O)[C@H]2N[C@@H]3CC[C@H]2C3)c(F)c1 [Example 85]
7.74	5.16	Cc1ncc(-c2ccc(C[C@@H](C#N)NC(=O)[C@H]3N[C@H]4C[C@@H]3[C@@H]3C[C@@H]34)c(F)c2)s1 [Example 93]
7.62	5.19	CC(O)Cc1cn(-c2ccc(C[C@@H](C#N)NC(=O)[C@H]3N[C@@H]4CC[C@H]3C4)c(F)c2)nn1 (stereo partly drawn) [Example 101]
7.60	5.23	N#CC(Cc1ccc(-c2ccoc2)cc1F)NC(=O)[C@H]1N[C@@H]2CC[C@H]1C2 (stereo partly drawn) [Example 103]
7.60	4.99	Cc1n[nH]cc1-c1ccc(CC(C#N)NC(=O)[C@H]2N[C@@H]3CC[C@H]2C3)c(F)c1 (stereo partly drawn) [Example 104]
7.59	5.33	Cn1c(=O)oc2cc(-c3ccc(CC(C#N)NC(=O)[C@H]4N[C@@H]5CC[C@H]4C5)c(F)c3)ccc21 (stereo partly drawn) [Example 107]
7.44	5.08	CCc1ncc(-c2ccc(C[C@@H](C#N)NC(=O)[C@H]3N[C@H]4C[C@@H]3[C@@H]3C[C@@H]34)c(F)c2)s1 [Example 113]
7.42	5.64	N#C[C@H](Cc1ccc(-c2ccc(C(=O)O)s2)cc1F)NC(=O)[C@H]1N[C@@H]2CC[C@H]1C2 [Example 115]
7.35	5.41	Cn1cc(-c2ccc(C[C@@H](C#N)NC(=O)[C@H]3N[C@@H]4CC[C@H]3C4)c(F)c2)c(C(F)(F)F)n1 [Example 118]
7.29	5.35	COc1ccccc1-c1cn(-c2ccc(C[C@@H](C#N)NC(=O)[C@H]3N[C@@H]4CC[C@H]3C4)c(F)c2)nn1 [Example 119]
6.81	5.28	Cc1noc(C)c1-c1ccc(C[C@@H](C#N)NC(=O)[C@H]2N[C@@H]3CC[C@H]2C3)c(F)c1 [Example 121]
7.36	4.99	N#C[C@H](Cc1ccc(-c2ccc(C(N)=O)cc2)cc1F)NC(=O)[C@H]1N[C@H]2C[C@@H]1[C@@H]1C[C@@H]12 [Example 130]
7.79	4.71	COC(=O)c1cc(-c2ccc(C[C@@H](C#N)NC(=O)[C@H]3N[C@H]4C[C@@H]3[C@@H]3C[C@@H]34)c(F)c2)cs1 [Example 133]
7.75	5.17	N#C[C@H](Cc1ccc(-c2ccc3c(c2)CC(=O)N3)cc1F)NC(=O)[C@H]1N[C@H]2C[C@@H]1[C@@H]1C[C@@H]12 [Example 134]
7.84	5.19	CCn1cc(-c2ccc(C[C@@H](C#N)NC(=O)[C@H]3N[C@H]4C[C@@H]3[C@@H]3C[C@@H]34)c(F)c2)cn1 [Example 138]
7.67	5.08	CS(=O)(=O)Nc1ccc(-c2ccc(C[C@@H](C#N)NC(=O)[C@H]3N[C@H]4C[C@@H]3[C@@H]3C[C@@H]34)c(F)c2)cc1 [Example 140]

Structure (SMILES)	pIC50 [1]	pIC50 [2]
CCc1ncc(-c2ccc(C[C@@H](C#N)NC(=O)[C@H]3N[C@@H]4CC[C@H]3C4)c(F)c2)s1 [Example 46]	8.16	5.40
CN1C(=O)Cc2ccc(-c3ccc(C[C@@H](C#N)NC(=O)[C@H]4N[C@@H]5CC[C@H]4C5)c(Cl)c3)cc21 [Example 81]	7.88	5.35
Cc1occc1-c1ccc(CC(C#N)NC(=O)[C@H]2N[C@@H]3CC[C@H]2C3)c(F)c1 (stereo partly drawn) [Example 92]	7.75	5.09
